{"source": "patent US20070275925A1", "about": "“ASTHMA DIAGNOSIS AND THERAPY” (REGENTS OF THE UNIVERSITY OF CALIFORNIA, priority 2006, published 2007)", "test": "Lung function (FEV1) in the clinical trial", "format": "in vivo, human", "details": "by one week, sustained at 4 weeks and 8 weeks; inhaled fluticasone 500 μg twice daily", "method": "In three cross sectional studies and a clinical trial, epithelial brushings were collected by bronchoscopy from 42 subjects with asthma, 16 current smokers without asthma, and 28 healthy controls. Cross-sectional studies comprised 2 visits, the first for characterization and the second for bronchoscopy. The clinical trial was a 10 week, randomized, double-blind, placebo-controlled trial specifically designed to determine the effects of inhaled fluticasone (500 μg twice daily) on airway gene expression and to relate gene expression changes to improvements in lung function (FIG. 1). Bronchoscopy was performed at baseline and repeated 1 week after starting study drug. Thirty-five subjects had adequate baseline bronchoscopy and 32 had RNA available from epithelial brushings at both bronchoscopies. Lung function was measured at intervals over the 8-week treatment period. […] Spirometry was measured at baseline, before both bronchoscopies, at 4 and 8 weeks after starting study medication, and after the one week run-out according to American Thoracic Society criteria using a dry rolling-seal spirometer (Model VRS2000, PDS Instrumentation, S&M Instrument Co., Doylestown, Pa.). Methacholine responsiveness was measured at baseline and at 4 and 8 weeks after starting study medication using a five-breath dosimeter method (modified from Chai et al).^5"}
{"smiles": "CCC(=O)O[C@]1(C(=O)SCF)[C@H](C)C[C@H]2[C@@H]3C[C@H](F)C4=CC(=O)C=C[C@]4(C)[C@@]3(F)[C@@H](O)C[C@@]21C", "note": "[fluticasone, fluticasone propionate]", "values": [{"measurement": "Improvement in FEV1 versus placebo", "value": "greater improvements in FEV1 than placebo"}]}
